We go through 1 compound from the NIST ThermoML archive (doi:10.1016/j.tca.2016.01.006).

Molecules are shown by their SMILES. Numbers after ± are expanded uncertainties.

Data set [1] in a line: Molar enthalpy of transition or fusion. The following applies: DSC.
The conditions of data set [2]: DTA.

With `CC1=C(CC(=O)O)c2cc(F)ccc2/C1=C\c1ccc([S+](C)[O-])cc1` (centres undefined), the entries for the “Molar enthalpy of transition or fusion” value in data set [1] (Crystal 1) and in data set [1] (Metastable crystal) were 5.45 ± 0.17 kcal/mol and 7.24 ± 0.17 kcal/mol, respectively. Further, the Normal melting temperature in data set [2] (Crystal 1) came out at 190.00 ± 2 °C; in data set [2] (Metastable crystal) it was 185.00 ± 2 °C.
